Laboratory results from paper PMC8445441, “Elucidating the mechanism by which synthetic helper peptides sensitize Pseudomonas aeruginosa to multiple antibiotics” (PLoS Pathogens, 2021).
Where two headings read alike, the source gives them in different places.

Key:
[1] = test system: P. aeruginosa PAO1; experiment: microbe, parasite or virus in culture; conditions: PAO1
Procedure, shortened: (§1)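 CLSI broth dilution; MHB; ~1 × 10^6 CFU/mL suspension mixed equal volume with drug; 37 °C for 18 h; visual read; triplicate. Broth sometimes supplemented with PG, PE, PC, CL, LPS, MgCl2, CaCl2 or PAβN.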

[2] = test system: P. aeruginosa AUMC-Pa-3; experiment: microbe, parasite or virus in culture; conditions: strain AUMC-Pa-3; for FICI: antibiotic + D-11 (MICb/MICbc 128/4); for MICa: MIC of the antibiotic: antibiotic alone; for MICa: MIC of the antibiotic / MICac: MIC of the antibiotic in the combination: unit not given; for MICac: MIC of the antibiotic in the combination: with D-11 at MICbc 4
Procedure, shortened: as §1

[3] = test system: P. aeruginosa AUMC-Pa-6; experiment: microbe, parasite or virus in culture; conditions: strain AUMC-Pa-6; for FICI: antibiotic + D-11 (MICb/MICbc 64/4); for MICa: MIC of the antibiotic: antibiotic alone; for MICa: MIC of the antibiotic / MICac: MIC of the antibiotic in the combination: unit not given; for MICac: MIC of the antibiotic in the combination: with D-11 at MICbc 4
Procedure, shortened: as §1

[4] = test system: P. aeruginosa AUMC-Pa-4; experiment: microbe, parasite or virus in culture; conditions: strain AUMC-Pa-4; for FICI: antibiotic + D-11 (MICb/MICbc 128/4); for MICa: MIC of the antibiotic: antibiotic alone; for MICa: MIC of the antibiotic / MICac: MIC of the antibiotic in the combination: unit not given; for MICac: MIC of the antibiotic in the combination: with D-11 at MICbc 4
Procedure, shortened: as §1

[5] = test system: P. aeruginosa AUMC-Pa-5; experiment: microbe, parasite or virus in culture; conditions: for FICI: antibiotic + D-11 (MICb/MICbc 64/4); for MICac: MIC of the antibiotic in the combination: with D-11 at MICbc 4
Procedure, shortened: as §1

[6] = test system: P. aeruginosa HM-214; conditions: strain HM-214; antibiotic + D-11 (MICb/MICbc 128/4)
Procedure, shortened: as §1

[7] = test system: P. aeruginosa AUMC-Pa-2; conditions: strain AUMC-Pa-2; antibiotic + D-11 (MICb/MICbc 64/4)
Procedure, shortened: as §1

[8] = test system: P. aeruginosa AUMC-Pa-1; conditions: strain AUMC-Pa-1; antibiotic + D-11 (MICb/MICbc 128/4)
Procedure, shortened: as §1

[9] = test system: clinical P. aeruginosa isolates; experiment: microbe, parasite or virus in culture; conditions: Pseudomonas aeruginosa, 18 h, antibiotic alone
Procedure, shortened: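 MIC is the lowest drug concentration showing no visible growth after 18 h at 37 °C. Two-fold dilutions in MHB were combined with an equal volume of bacterial suspension (about 1 × 10^6 CFU/mL), following CLSI broth microdilution, in triplicate.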

[10] = test system: P. aeruginosa NR-31040; experiment: microbe, parasite or virus in culture; set-up: MICa: MIC of the antibiotic / MICac: MIC of the antibiotic in the combination: unit not given beside the values; conditions: strain NR-31040; for FICI: antibiotic + D-11 (MICb/MICbc 128/4); for MICa: MIC of the antibiotic: antibiotic alone; for MICa: MIC of the antibiotic / MICac: MIC of the antibiotic in the combination: unit not given; for MICac: MIC of the antibiotic in the combination: with D-11 at MICbc 4
Procedure, shortened: as §1

[11] = test system: P. aeruginosa PAK; experiment: microbe, parasite or virus in culture; set-up: MICa: MIC of the antibiotic / MICac: MIC of the antibiotic in the combination: unit not given beside the values; conditions: strain PAK; for FICI: antibiotic + D-11 (MICb/MICbc 64/4); for MICa: MIC of the antibiotic: antibiotic alone; for MICa: MIC of the antibiotic / MICac: MIC of the antibiotic in the combination: unit not given; for MICac: MIC of the antibiotic in the combination: with D-11 at MICbc 4
Procedure, shortened: as §1

[12] = test system: P. aeruginosa NR-31041; experiment: microbe, parasite or virus in culture; set-up: MICa: MIC of the antibiotic / MICac: MIC of the antibiotic in the combination: unit not given beside the values; conditions: strain NR-31041; for FICI: antibiotic + D-11 (MICb/MICbc 64/4); for MICa: MIC of the antibiotic: antibiotic alone; for MICa: MIC of the antibiotic / MICac: MIC of the antibiotic in the combination: unit not given; for MICac: MIC of the antibiotic in the combination: with D-11 at MICbc 4
Procedure, shortened: as §1

[13] = test system: P. aeruginosa PA14; experiment: microbe, parasite or virus in culture; set-up: MICa: MIC of the antibiotic / MICac: MIC of the antibiotic in the combination: unit not given beside the values; conditions: strain PA14; for FICI: antibiotic + D-11 (MICb/MICbc 128/4); for MICa: MIC of the antibiotic: antibiotic alone; for MICa: MIC of the antibiotic / MICac: MIC of the antibiotic in the combination: unit not given; for MICac: MIC of the antibiotic in the combination: with D-11 at MICbc 4
Procedure, shortened: as §1

[14] = test system: P. aeruginosa ATCC27853; experiment: microbe, parasite or virus in culture; set-up: MICa: MIC of the antibiotic / MICac: MIC of the antibiotic in the combination: unit not given beside the values; conditions: strain ATCC27853; for FICI: antibiotic + D-11 (MICb/MICbc 32/4)
Procedure, shortened: as §1

[15] = strain AUMC-Pa-5, unit not given
[16] = read-out: Antibiotic sensibility (MIC) of clinical P. aeruginosa isolate AUMC-Pa-1, strain AUMC-Pa-1
[17] = read-out: Antibiotic sensibility (MIC) of clinical P. aeruginosa isolate AUMC-Pa-2, strain AUMC-Pa-2
[18] = read-out: Antibiotic sensibility (MIC) of clinical P. aeruginosa isolate AUMC-Pa-3, strain AUMC-Pa-3
[19] = read-out: Antibiotic sensibility (MIC) of clinical P. aeruginosa isolate AUMC-Pa-4, strain AUMC-Pa-4
[20] = read-out: Antibiotic sensibility (MIC) of clinical P. aeruginosa isolate AUMC-Pa-5, strain AUMC-Pa-5
[21] = read-out: Antibiotic sensibility (MIC) of clinical P. aeruginosa isolate AUMC-Pa-6, strain AUMC-Pa-6
[22] = read-out: Antibiotic sensibility (MIC) of clinical P. aeruginosa isolate HM-214, strain HM-214
[23] = read-out: Antibiotic sensibility (MIC) of clinical P. aeruginosa isolate NR-31040, strain NR-31040
[24] = read-out: Antibiotic sensibility (MIC) of clinical P. aeruginosa isolate NR-31041, strain NR-31041

O=C(N[C@H](CO)[C@H](O)c1ccc([N+](=O)[O-])cc1)C(Cl)Cl [Chloramphenicol]
FICI ([1]; S3 Table, antibiotic + 2 μM D-11): 0.094 | FICI ([1]; S3 Table, antibiotic + 4 μM D-11): 0.156 | MICac: the MIC for the antibiotic in the combination ([1]; S3 Table, with 2 μM D-11): 4 µM | MICac: the MIC for the antibiotic in the combination ([1]; S3 Table, with 4 μM D-11): 4 µM | MICa: the MIC of antibiotics ([1]; S3 Table, antibiotic alone): 128 µM | FICI [2]: 0.063 | MICa: MIC of the antibiotic [2]: 128 | MICac: MIC of the antibiotic in the combination [2]: 4 | FICI [3]: 0.094 | MICa: MIC of the antibiotic [3]: 128 | MICac: MIC of the antibiotic in the combination [3]: 4 | FICI [4]: 0.063 | MICa: MIC of the antibiotic [4]: 128 | MICac: MIC of the antibiotic in the combination [4]: 4 | FICI ([5]; strain AUMC-Pa-5): 0.188 | MICa: MIC of the antibiotic ([5]; strain AUMC-Pa-5, antibiotic alone, unit not given): 128 | MICac: MIC of the antibiotic in the combination [5, 15]: 16 | FICI [6]: 0.063 | FICI [7]: 0.094 | FICI [8]: 0.047 | MIC [9, 16]: > 128 µM | MIC [9, 17]: 128 µM | MIC [9, 18]: 128 µM | MIC [9, 19]: 128 µM | MIC [9, 20]: 128 µM | MIC [9, 21]: 128 µM | MIC [9, 22]: 128 µM | MIC [9, 23]: 128 µM | MIC [9, 24]: 128 µM | FICI [10]: 0.063 | MICa: MIC of the antibiotic [10]: 128 | MICac: MIC of the antibiotic in the combination [10]: 4 | FICI [11]: 0.094 | MICa: MIC of the antibiotic [11]: 128 | MICac: MIC of the antibiotic in the combination [11]: 4 | FICI [12]: 0.094 | MICa: MIC of the antibiotic [12]: 128 | MICac: MIC of the antibiotic in the combination [12]: 4 | FICI [13]: 0.063 | MICa: MIC of the antibiotic [13]: 128 | MICac: MIC of the antibiotic in the combination [13]: 4 | FICI [14]: 0.141

CC[C@H]1OC(=O)[C@H](C)[C@@H](O[C@H]2C[C@@](C)(OC)[C@@H](O)[C@H](C)O2)[C@H](C)[C@@H](O[C@@H]2O[C@H](C)C[C@H](N(C)C)[C@H]2O)[C@](C)(OC)C[C@@H](C)C(=O)[C@H](C)[C@@H](O)[C@]1(C)O [Clarithromycin]
MICa: the MIC of antibiotics ([1]; S1 Table, macrolide alone): 128 µM | FICI [2]: 0.094 | MICa: MIC of the antibiotic [2]: 128 | MICac: MIC of the antibiotic in the combination [2]: 8 | FICI [3]: 0.313 | MICa: MIC of the antibiotic [3]: 128 | MICac: MIC of the antibiotic in the combination [3]: 32 | FICI [4]: 0.281 | MICa: MIC of the antibiotic [4]: 128 | MICac: MIC of the antibiotic in the combination [4]: 32 | MIC ([5]; Pseudomonas aeruginosa, AUMCPA5, 18 h, read-out: MICa: MIC of the antibiotic): > 128 µM | FICI ([5]; strain AUMC-Pa-5): 0.188 | MICac: MIC of the antibiotic in the combination [5, 15]: 32 | FICI [6]: 0.281 | FICI [7]: 0.313 | FICI [8]: 0.156 | MIC [9, 16]: 128 µM | MIC [9, 17]: 128 µM | MIC [9, 18]: 128 µM | MIC [9, 19]: 128 µM | MIC [9, 20]: > 128 µM | MIC [9, 21]: 128 µM | MIC [9, 22]: 128 µM | MIC [9, 23]: 128 µM | MIC [9, 24]: 128 µM | FICI [10]: 0.281 | MICa: MIC of the antibiotic [10]: 128 | MICac: MIC of the antibiotic in the combination [10]: 32 | FICI [11]: 0.188 | MICa: MIC of the antibiotic [11]: 128 | MICac: MIC of the antibiotic in the combination [11]: 16 | FICI [12]: 0.188 | MICa: MIC of the antibiotic [12]: 128 | MICac: MIC of the antibiotic in the combination [12]: 16 | FICI [13]: 0.281 | MICa: MIC of the antibiotic [13]: 128 | MICac: MIC of the antibiotic in the combination [13]: 32 | FICI [14]: 0.188 | MICa: MIC of the antibiotic ([14]; antibiotic alone, unit not given): 128 | MICac: MIC of the antibiotic in the combination ([14]; with D-11 at MICbc 4, unit not given): 8
